In patent US20250353825A1, “CANNABICYCLOL DERIVATIVES AND PREPARATION METHODS THEREOF” (priority 2023, published 2025):
Converted amounts (≈) assume the structure as drawn.

Tests used:
Format in all cases: cell-based
GSC-3 (3#-GSC) = test: MTS cell viability assay, glioblastoma stem cells GSC-3 (3#-GSC)
Method: (§1) Primary viability screening: (1) the synthesized compounds 3a to 13d were respectively dissolved in DMSO to prepare a 40 μg/mL cannabicyclol and cannabicyclol derivative solutions.
(§2) (2) A control group: a 200 μL DMSO solvent.
(§3) (3) The solutions of compounds 3a to 13d were diluted in a twofold gradient to obtain cannabicyclol and cannabicyclol derivative solutions at concentrations of 40 μg/mL, 20 μg/mL, 10 μg/mL, 5 μg/mL, 2.5 μg/mL, 1.25 μg/mL, and 0.625 μg/mL, and 0.3125 μg/mL, respectively.
(§4) (4) Three glioblastoma stem cells (GSC-3, GSC-12, and GSC-18), three pancreatic cancer cell-derived stem cells (PANC-1-CSC, BXPC-3-CSC, and ASPC1-CSC), three liver cancer cell-derived stem cells (HepG2-CSC, MHCC97H-CSC, and SMMC7721-CSC), HEK-293T cells, 16 tumor cells (U251, U87, T98G, PANC1, BXPC3, ASPC1, HepG2, MHCC97H, SMMC7721, PC3, SKOV3, MDA-MB231, A549, HCT116, HEC-1B, MKN28), and differentiated glioblastoma stem cells (GSC-3diff and GSC-12diff) derived from GSC-3 and GSC-12 (all of the cells were provided by the Laboratory of Tumor Animal Model Preparation and Application Research, West China Hospital, Sichuan University) were inoculated into a 96-well plate at a concentration of 2×10^4 cells/well, and 100 μL of culture medium was then added to each well;
(5) 2) HEK-293T, GSC-3diff, GSC-12diff, and the 16 tumor cells were added with DMEM, 10% FBS, and 1% double antibody culture medium. Cancer stem cells (CSCs) were added with serum-free stem cell medium consisting of DMEM/F12, EGF (20 ng/mL), bFGF (20 ng/mL), B27 (1×), and 1% double antibody culture medium.
(6) Inoculated cells were put into a cell culture incubator for 24 hours, and after the cells were well adhered to the wall, the culture medium in the 96-well plate was discarded.
(7) 200 μL cannabicyclol and cannabicyclol derivatives solutions at different concentrations were added to the cultured cells.
(8) The experiment was set up with 3 replicates.
(9) The 96-well plate was placed in a cell culture incubator, and incubation was continued at 37° C. and 5% CO2 for 72 hours. Then, 100 μL of cannabicyclol and cannabicyclol derivative solution per well was discarded (100 μL of DMSO solvent was discarded for the control group), and 20 μL of LMTS (CellTiter AQueous Non-Radioactive Cell Proliferation Assay, #G3581) was mixed and continued to be placed in the cell incubator for 2 hours of incubation.
(§5) (10) The absorbance value at 490 nm was measured on an enzyme labeling apparatus, and the IC50 value was calculated.

GSC-12 = test: MTS cell viability assay, GSC-12; settings: GSC12; Table 6, tumor stem cell, 72 hours; read-out: IC50 against GSC-12
Method: as §1, §2, §3
as §4, with “well; […]” for “well;”
as §5

BXPC3 = test: MTS cell viability assay, BXPC3; settings: Homo sapiens, BXPC-3; Table 7, 72 hours; read-out: IC50 against BXPC3
Method: as §1, §2, §3
as §4, with “well; […]” for “well;”
as §5

SKOV3 = test: MTS cell viability assay, SKOV3; settings: Homo sapiens, SK-OV-3; Table 7, 72 hours; read-out: IC50 against SKOV3
Method: as §1, §2, §3
as §4, with “well; […]” for “well;”
as §5

A549 = test: MTS cell viability assay, A549; settings: Homo sapiens, Table 7, 72 hours, read-out: IC50 against A549
Method: as §1, §2, §3
as §4, with “well; […]” for “well;”
as §5

SMMC7721 = test: MTS cell viability assay, SMMC7721; settings: Homo sapiens, SMMC-7721; Table 7, 72 hours; read-out: IC50 against SMMC7721
Method: as §1, §2, §3
as §4, with “well; […]” for “well;”
as §5

SMMC7721-CSC = test: Soft agar colony (clone) formation, SMMC7721-CSC; settings: crystal violet, FIG. 4, compound 3a 0, 5 and 5 [sic] μg/mL
Method: (§6) […] of low-melting-point agarose was dissolved in 12.5 mL of ddH2O to prepare a 3.2% low-melting-point agarose gel. The low-melting-point agarose gel was sterilized by autoclaving at 121° C. and 0.12 MPa for 20 minutes. After sterilization, the low-melting-point agarose gel was maintained at 60° C. in a drying oven for further use.
(§7) 1.75 mL of 3.2% sterile low-melting-point agarose gel was taken, 5.25 mL of the corresponding complete medium was added, and the two were mixed thoroughly using a pipette to prepare a base gel at a concentration of 0.8%.
(§8) 1 mL of the base gel was added to each well of a 6-well plate, ensuring that the base gel evenly covered the bottom of each well. The plate was placed at 4° C. for 5 minutes to allow the gel to solidify. After the gel had fully solidified, the plate was warmed at 37° C. for 5 minutes.
(§9) 6 cells/cell lines (U251, SMMC7721, GSC-3, GSC-12, SMMC7721-CSC, and HepG2-CSC) were individually digested with 1× trypsin for 3 minutes. The corresponding complete culture medium (same as in the application example 1) was added to terminate the digestion. Cells were centrifuged at 1000 rpm for 3 minutes, and the cells were collected and counted. A total of 5×10^3 cells were added to each well, each group was set up with three replicates. […]

HepG2-CSC = test: Soft agar colony (clone) formation, HepG2-CSC; settings: crystal violet, FIG. 4, compound 3a 0, 5 and 5 [sic] μg/mL
Method: as §6, §7, §8, §9

[1] = system: liver cancer carcinoma cell line SMMC7721; test: Soft agar colony (clone) formation, SMMC7721; settings: crystal violet, FIG. 4, compound 3a 0, 5 and 5 [sic] μg/mL
Method: as §6, §7, §8, §9

[2] = system: HEK-293T, GSC-3diff, GSC-12diff and 16 tumor cells; test: MTS cell viability assay, summary over HEK-293T, GSC-3diff, GSC-12diff and 16 tumor cells; settings: summary of Table 7 in words
Method: as §1, §2, §3
as §4, with “well; […]” for “well;”
as §5

With `CCCCCc1cc(O)c2c(c1)OC1(C)CCC3C1C2C3(C)C` (stereo not drawn) [Compound 3a, cannabicyclol] as the compound, how does the IC50 (GSC-3 (3#-GSC); GSC-3, 72 h, read-out: IC50 against GSC-3) read?
Its IC50 is 3.85 µg/mL (≈ 12.2 µM).

What about the “selective anti-glioma stem cell viability” value (GSC-3 (3#-GSC); judged in words from preliminary viability screening against 3#-GSC, 293T and U251) of the same compound?
The value was “a certain degree of selective anti-glioma stem cell viability”.

And the “Cell viability in 3#-GSC (%)” value (GSC-3 (3#-GSC); primary viability screening, 72 hours, MTS, test concentration not stated)?
The value was 20%.

And the IC50 (GSC-12)?
The IC50 was 8.03 µg/mL (≈ 25.5 µM).

What about the IC50 (BXPC3) of the same compound?
The IC50 was > 40 µg/mL.

What about the IC50 (SKOV3) of the same compound?
Its IC50 is > 40 µg/mL.

And the IC50 (A549)?
Its IC50 is > 40 µg/mL.

What about the IC50 (SMMC7721) of the same compound?
The IC50 was > 40 µg/mL.

And the “colony formation of SMMC7721-CSC” value (SMMC7721-CSC)?
The value was “significantly inhibited”.

What about the “colony formation of HepG2-CSC” value (HepG2-CSC) of the same compound?
Its value is “significantly inhibited”.

And the “colony formation of SMMC7721” value [1]?
Its value is “significantly inhibited”.

And the “inhibitory effects on HEK-293T, GSC-3diff, GSC-12diff and the 16 tumor cells” value [2]?
Its value is “no significant inhibitory effects”.
